Reference: patent US20210395327A1, “Growth Hormone-Releasing Hormone Antagonists and Uses Thereof” (United States Government As Represented By The Department …, priority 2019, published 2021)
Entries after “also recorded” stand apart in the source; their conditions may differ. Non-standard residues stand in square brackets, D forms with d. Residues, ends and D or L forms follow the SMILES beside them. *: point of attachment. Phenylacetyl(2,3,4,5,6-F5) = O=C(Cc1c(F)c(F)c(F)c(F)c1F)*; Phe(F5) = N[C@@H](Cc1c(F)c(F)c(F)c(F)c1F)C(=O)O; Phe(4-Cl) = N[C@@H](Cc1ccc(Cl)cc1)C(=O)O; hArg = N=C(N)NCCCC[C@H](N)C(=O)O; 12Ado = NCCCCCCCCCCCC(=O)O; Nle = CCCC[C@H](N)C(=O)O; Orn = NCCC[C@H](N)C(=O)O; Abu = CC[C@H](N)C(=O)O

How the values were obtained:
[1] = tested on: GH release from rat pituitary cells; assay: Inhibition of GH release from rat pituitary cells in vitro (GH ELISA); type: cell-based; conditions: for Relative GH release: analogs 20 nM, then with 1 nM GHRH(1-29)NH2 for 30 minutes, Control = 1.00
Description: In vitro assessment of the antagonistic activity of GHRH analogs. Rats were decapitated and pituitaries were collected in pre-warmed HBSS (Hanks' Balanced Salt Solution). Tissue was then cut into small pieces and digested in HBSS medium containing 3% BSA, 50 μg/ml gentamycin and 0.5% collagenase for 50 minutes at 37° C. Cells were further dispersed by pipetting and passed through a 100 μm cell strainer with the addition of DMEM containing 50 μg/ml gentamycin. 10% horse serum and 2.5% FBS (growth medium). Cells were harvested at 475×g for 2 minutes, resuspended in fresh growth medium and seeded onto poly-D-lysine-coated 24-well plates (7 pituitaries/plate). Cells were left to recover for 4 days. Growth medium was then replaced with serum-free DMEM for 4 hours and GHRH analogs (at concentration of 20 nM) were added in DMEM containing 0.1% BSA for 30 minutes. Cells were replenished with medium containing the same concentration of the analogs and 1 nM GHRH(1-29)NH2 for 30 minutes. Medium from this step was collected, centrifuged at 800 g for 3 minutes and GH concentration was determined by ELISA (ALPCO Diagnostics, Mill Valley, Calif.) according to the manufacturer's instruction.

[2] = molecular target: T1, membrane GHRH-receptors on human anterior pituitary cells (Homo sapiens, UniProt Q02643); assay: Receptor binding, displacement of 125I-[His1,Nle27]-hGH-RH(1-32)NH2 on human pituitary membranes; conditions: for IC50: membrane receptors on human anterior pituitary cells, mean of two to three determinations, read-out: IC50
T1 construct: Human pituitary was purchased from the National Hormone and Peptide Program; tissue National Hormone and Peptide Program; host or cells: human pituitary (membrane fractions)
T1 sequence (Q02643 23-423): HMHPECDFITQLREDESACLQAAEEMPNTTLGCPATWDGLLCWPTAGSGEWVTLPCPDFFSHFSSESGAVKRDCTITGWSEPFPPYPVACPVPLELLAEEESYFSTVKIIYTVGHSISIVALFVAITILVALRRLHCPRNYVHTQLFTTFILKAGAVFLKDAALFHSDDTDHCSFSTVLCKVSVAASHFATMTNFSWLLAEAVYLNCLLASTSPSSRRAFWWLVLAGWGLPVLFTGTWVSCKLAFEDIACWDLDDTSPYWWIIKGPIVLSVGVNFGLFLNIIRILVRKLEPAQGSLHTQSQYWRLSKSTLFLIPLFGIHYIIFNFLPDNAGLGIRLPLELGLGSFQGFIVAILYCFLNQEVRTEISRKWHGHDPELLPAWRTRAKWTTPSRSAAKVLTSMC
Summary of the method: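 Membrane fractions from human pituitary; peptides displace 125I-[His1,Nle27]-hGH-RH(1-32)NH2. IC50 is the dose giving 50% inhibition of specific binding, from duplicate tubes. Relative affinity is the ratio of test IC50 to hGH-RH(1-29)NH2 IC50.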

[3] = tested on: lung cancer HCC827 xenograft; assay: Xenograft tumor growth in nude mice, HCC827; type: in vivo; conditions: Table 4B, Lung Ca HCC827, 7 weeks, 5 μg/day s.c.; for % Inhibition: vs control
Description: The peptides' activity was compared with GHRH antagonist MIA-602. All statistical analyzses were performed from comparing GHRA antagonists to non-treated tumor (control).
Peptides and chemicals. GHRH antagonists MIA-602 and AVR-GHRH antagonists (see Table 2 above) were synthesized by solid phase methods and purified by HPLC. The peptides were dissolved in DMSO and further diluted in 10% 1,2-propanediol. The final concentration of peptides was 50 µg/ml in 10% 1,2-propanediol containing 0.1% of DMSO.
Cell culture. Human cancer cell lines including pancreatic (PANC-1 and CFPAC-1), lung (HCC827 and H460), stomach (NCI-N87), prostate (PC3), brest (MX-1 and HCC-1806), colorectal (HT-29), and ovarian (SK-OV-3 and OVCAR-3) were obtained from the American Type Culture Collection (ATCC) and cultured at 37° C. in a humidified 95% air/5% CO2 atmosphere in the medium recommended by ATCC.
Xenograft models of human cancers in nude mice. Female athymic (NCr nu/nu) nude mice, 5- to 6-weeks-old, obtained from the Envigo labs (Tampa, Fla.), were housed in laminar airflow cabinets under pathogen-free conditions with a 12-h light/12-h dark schedule, and were fed autoclaved standard chow and water. To generate mice with xenografted tumors, tumor xenografts were initiated by subcutaneous (s.c.) injection of 107 human cancer cells into female nude mice. After about 4 weeks the resulting tumors were dissected and collected after removing necrosis tissues. The tumors were then cut into particles with size of 3 mm3 and transplanted s.c. by trocar needle into experimental animals. When tumors grew to the size of 50-60 mm3 (by volume), mice were randomized into groups and treated daily for 4-8 weeks by subcutaneous administration of 5 μg of GHRH antagonists MIA-602 or AVR-compounds (2-10 μg as indicated), or vehicle solutions (0.1% DMSO in 10% 1,2-propanediol) respectively. Tumor sizes were measured weekly.
Statistical analysis. One-way ANOVA followed by Bonferroni comparison were performed. Data are expressed as Mean±SEM. To determine statistical significance between animal groups, two-tailed Student's t-test was conducted. Differences were considered significant when p<0.05.
Results. […] FIG. 1A-N represents in vivo inhibition of tumor growth during the treatment with GHRH antagonist MIA-602 and selected AVR antagonists in nude mice xenografted with various human tumors including pancreatic cancer PANC-1 (FIG. 1A) and CFPAC-1 (FIG. 1I); lung cancer HCC827 (FIGS. 1B, C) and H460 (FIG. 1H); stomach cancer N87 (FIGS. 1D-F); colon cancer HT-29 (FIG. 1G); breast cancer MX-1 and HCC-1806 (FIGS. 1J, K); ovarian cancer SK-OV-3 and OVACAR-3 (FIGS. 1 L, M) and prostate cancer PC3 (FIG. 1N). See also Table 5.

Row | Compound | Relative GH release [1] | IC50 [2] | Tumor Growth % [3] | % Inhibition [3] | inhibitory effects on the release of GH, compared with MIA-602 (in words) ([1]; rat pituitary cells in vitro, 20 nM) | binding affinity to membrane receptors of human pituitary cells (in words) ([2]; competitive binding, human pituitary membrane fractions)
1 | CCCC[C@H](NC(=O)[C@@H](NC(=O)[C@H](CC(=O)O)NC(=O)[C@H](CCC(N)=O)NC(=O)[C@H](CC(C)C)NC(=O)[C@H](CC(C)C)NC(=O)[C@H](CCCN)NC(=O)[C@H](Cc1c[nH]cn1)NC(=O)[C@H](C)NC(=O)[C@H](CO)NC(=O)[C@H](CC(C)C)NC(=O)[C@H](CCC(N)=O)NC(=O)[C@H](CC)NC(=O)[C@H](CC(C)C)NC(=O)[C@@H](NC(=O)[C@H](CCCN)NC(=O)[C@H](Cc1c[nH]cn1)NC(=O)[C@H](Cc1c(F)c(F)c(F)c(F)c1F)NC(=O)[C@H](CCCCNC(=N)N)NC(=O)[C@H](C)NC(=O)[C@@H](NC(=O)[C@H](Cc1ccc(Cl)cc1)NC(=O)[C@@H](NC(=O)[C@H](C)NC(=O)[C@H](CC(=O)O)NC(=O)[C@@H](CCCNC(=N)N)NC(=O)[C@H](Cc1ccc(O)cc1)NC(=O)CCCCCCCCCCCNC(=O)Cc1c(F)c(F)c(F)c(F)c1F)[C@@H](C)CC)[C@@H](C)O)C(C)C)[C@@H](C)CC)C(=O)N[C@H](CCCNC(=N)N)C(=O)N[C@@H](CCCCNC(=N)N)C(=O)NCCCCCCCCCCCC(=O)NC [AVR-543, 5FPhAC-Ada-Tyr-DArg-Asp-Ala-Ile-Cpa-Thr-Ala-Har-5FPhe-His-Orn-Val-Leu-Abu-Gln-Leu-Ser-Ala-His-Orn-Leu-Leu-Gln-Asp-Ile-Nle-DArg-Har-Ada-NHCH3] ({Phenylacetyl(2,3,4,5,6-F5)-12Ado}-Y[dR]DAI[Phe(4-Cl)]TA[hArg][Phe(F5)]H[Orn]VL[Abu]QLSAH[Orn]LLQDI[Nle][dR][hArg][12Ado]-NHMe) | 1.10 ± 0.01 | 0.25 nM | 806.0% | 38.6% |  | 
2 | CCCC[C@H](NC(=O)[C@@H](NC(=O)[C@H](CC(=O)O)NC(=O)[C@H](CCC(N)=O)NC(=O)[C@H](CC(C)C)NC(=O)[C@H](CC(C)C)NC(=O)[C@H](CCCCN)NC(=O)[C@H](CCCNC(=N)N)NC(=O)[C@H](C)NC(=O)[C@H](CO)NC(=O)[C@H](CC(C)C)NC(=O)[C@H](CCC(N)=O)NC(=O)[C@H](CC)NC(=O)[C@H](CC(C)C)NC(=O)[C@@H](NC(=O)[C@H](CCCCN)NC(=O)[C@H](CCCNC(=N)N)NC(=O)[C@H](Cc1ccc(OC)cc1)NC(=O)[C@H](CCCCNC(=N)N)NC(=O)[C@H](C)NC(=O)[C@@H](NC(=O)[C@H](Cc1c(F)c(F)c(F)c(F)c1F)NC(=O)[C@@H](NC(=O)[C@H](C)NC(=O)[C@H](CC(=O)O)NC(=O)[C@@H](CCCNC(=N)N)NC(=O)[C@H](Cc1ccc(O)cc1)NC(=O)CCCCCCCCCCCNC(=O)Cc1c(F)c(F)c(F)c(F)c1F)[C@@H](C)CC)[C@@H](C)O)C(C)C)[C@@H](C)CC)C(=O)N[C@H](CCCNC(=N)N)C(=O)N[C@@H](CCCCNC(=N)N)C(=O)NCCCCCCCCCCCC(N)=O [AVR-352, 5FPhAC-Ada-Tyr-DArg-Asp-Ala-Ile-5FPhe-Thr-Ala-Har-Tyr(Me)-Arg-Lys-Val-Leu-Abu-Gln-Leu-Ser-Ala-Arg-Lys-Leu-Leu-Gln-Asp-Ile-Nle-DArg-Har-Ada-NH2] ({Phenylacetyl(2,3,4,5,6-F5)-12Ado}-Y[dR]DAI[Phe(F5)]TA[hArg]Y(Me)RKVL[Abu]QLSARKLLQDI[Nle][dR][hArg][12Ado]-NH2) | 0.72 ± 0.03 | 0.09 nM | 371.7% | 71.6% | higher inhibitory effects than MIA-602 | higher binding affinity in comparison to MIA-602; also recorded: highest binding affinities
